# According to patent US11667652B2, “MCL1 inhibitors” (Gilead Sciences, Inc., priority 2019, dated 2023):
# “And” between values parts separate entries of the source, which are not always exact repeats. Identical values can stand only once. Like-named read-outs stand apart in the source and are kept apart here.
# Columns and labels:
# MCL1/Bim = MCL1/Bim (Homo sapiens (Human), UniProt Q07820); test: MCL1/Bim Binding AlphaLISA Assay; details: recombinant human 6xHis-MCL1 (171-327), biotinylated Bim peptide (51-76)
# Summary of the method: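 AlphaLISA with 0.0625 nM human 6×His-MCL1 (171-327) and 0.0625 nM biotinylated Bim (51-76) peptide in 20 mM Hepes pH 7.5, 150 mM NaCl, 0.002% Brij 35, 1 mM DTT, 0.01% BSA. Compound preincubated with MCL1 1 h, Bim added 2 h, then acceptor and donor beads 1 h each; % inhibition versus DMSO and no-protein/peptide controls.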
# SKBR3 cells = test: SKBR3 Cell Viability Assay; format: cell-based; details: CellTiter Glo, read-out: MCL1 CV SKBR3 EC50
# Summary of the method: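 Viability was measured by CellTiter-Glo luminescence after 72 h at 37° C, 5% CO2. Each well held 6,000 SKBR3 cells in McCoy's 5A/10% FBS dispensed onto serially diluted compound. Percent inhibition is relative to DMSO and 10 μM puromycin controls.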
# [1] = Homo sapiens, SK-BR-3, 72 hours
# MCL1/Bim, sequence (Q07820 171-327): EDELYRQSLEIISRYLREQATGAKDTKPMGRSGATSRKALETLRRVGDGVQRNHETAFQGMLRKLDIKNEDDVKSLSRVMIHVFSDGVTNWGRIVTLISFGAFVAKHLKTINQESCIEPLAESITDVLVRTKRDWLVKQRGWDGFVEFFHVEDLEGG
SMILES,IC50 (MCL1/Bim),EC50 (SKBR3 cells; [1]) [nM],EC50 (SKBR3 cells; 72 hours) [nM]
CO[C@H]1/C=C/C[C@H](C)[C@@H](C)[S@@](=O)(NC(=O)c2cc3n(c2)CCOC3)=NC(=O)c2ccc3c(c2)N(C[C@@H]2CC[C@H]21)C[C@]1(CO3)SCCc2cc(Cl)ccc21 [Example 181],0.27 nM,57,–
C[C@H]1C/C=C/[C@H](OCCN2CCOCC2)[C@@H]2CC[C@H]2CN2C[C@@]3(CCCc4cc(Cl)ccc43)COc3ccc(cc32)C(=O)N=[S@](=O)(Nc2ncnc3nn(C)cc23)C1 [Example 52],0.081 nM,9.5,–
CO[C@H]1/C=C/C[C@H](C)C[S@@](=O)(NC(=O)N[C@H]2C[C@@H]2OC)=NC(=O)c2ccc3c(n2)N(C[C@@H]2CC[C@H]21)C[C@@]1(CCCc2cc(Cl)ccc21)CO3 (mixture of isomers) [Example 188],0.06 nM,31.9,–
COc1nn(C)cc1C(=O)N[S@@]1(=O)=NC(=O)c2ccc3c(c2)N(C[C@@H]2CC[C@H]2[C@](O)(CC(=O)N(C)C)/C=C/C[C@H](C)C1)C[C@@]1(CCCc2cc(Cl)ccc21)CO3 [Example 96],0.075 nM,–,1410
COc1nn(C)cc1C(=O)N[S@@]1(=O)=NC(=O)c2ccc3c(c2)N(C[C@@H]2CC[C@H]2[C@@](O)(CC(=O)N2CCN(C4COC4)CC2)/C=C/C[C@H](C)C1)C[C@@]1(CCCc2cc(Cl)ccc21)CO3 [Example 104],0.034 nM,–,54
CO[C@H]1/C=C/C[C@H](C)C[S@@](=O)(NC(=O)[C@H]2C[C@@](C)(O)C2)=NC(=O)c2ccc3c(n2)N(C[C@@H]2CC[C@H]21)C[C@@]1(CCCc2cc(Cl)ccc21)CO3 [Example 190],0.15 nM,306,–
COc1nn(C)cc1C(=O)N[S@@]1(=O)=NC(=O)c2ccc3c(c2)N(C[C@@H]2CC[C@H]2C(O)(C#CCN(C)C)/C=C/C[C@H](C)C1)C[C@@]1(CCCc2cc(Cl)ccc21)CO3 (some centres unmarked) [Example 110],0.045 nM,–,27.6
CO[C@@H]1/C=C\C[C@H](C)C[S@@](=O)(Nc2ncnc3nn(C)cc23)=NC(=O)c2ccc3c(c2)N(C[C@@H]2CC[C@H]21)C[C@@]1(CCCc2cc(Cl)ccc21)CO3 [Example 27],0.103 nM,40,–
CO[C@H]1/C=C/C[C@H](C)C[S@@](=O)(NC(=O)[C@H]2C[C@](C)(O)C2)=NC(=O)c2ccc3c(n2)N(C[C@@H]2CC[C@H]21)C[C@@]1(CCCc2cc(Cl)ccc21)CO3 [Example 189],0.07 nM,71.8,–
COc1nn(C)cc1C(=O)N[S@@]1(=O)=NC(=O)c2ccc3c(c2)N(C[C@@H]2CC[C@H]2[C@H]2O[C@H](CCN(C)C)C[C@@H]2CC[C@H](C)C1)C[C@@]1(CCCc2cc(Cl)ccc21)CO3 [Example 152],0.027 nM,51.4,–
C=CC[C@@H]1C[C@@H]2C[C@H](OC)[C@@H]3CC[C@H]3CN3C[C@@]4(CCCc5cc(Cl)ccc54)CCc4ccc(cc43)C(=O)N=[S@](=O)(NC(=O)c3cn(C)nc3OC)C[C@@H](C)[C@H]2O1 [Example 141],0.677 nM,–,882
CO[C@H]1/C=C/CCC[S@@](=O)(Nc2ncnc3nn(C)cc23)=NC(=O)c2ccc3c(c2)N(C[C@@H]2CC[C@H]21)C[C@@]1(CCCc2cc(Cl)ccc21)CO3 [Example 26],0.224 nM and 0.233 nM,119,–
COc1nn(C)cc1C(=O)N[S@@]1(=O)=NC(=O)c2ccc3c(c2)N(C[C@@H]2CC[C@H]2[C@@H](OC)/C=C/[C@@H](OC)[C@H](C)C1)C[C@@]1(CCCc2cc(Cl)ccc21)CO3 [Example 93],0.457 nM,556,–
COc1nn(C)cc1C(=O)N[S@@]1(=O)=NC(=O)c2ccc3c(c2)N(C[C@@H]2CC[C@H]2[C@@H](OC)C[C@H]2CCO[C@@H]2CC1)C[C@@]1(CCCc2cc(Cl)ccc21)CO3 [Example 160],0.214 nM,331,–
COc1nn(C)cc1C(=O)N[S@@]1(=O)=NC(=O)c2ccc3c(c2)N(C[C@@H]2CC[C@H]2[C@@H](OC)/C=C/[C@@H]2OCC[C@@H]1[C@H]2C)C[C@@]1(CCCc2cc(Cl)ccc21)CC3 [Example 149],0.378 nM,287,–
COc1nn(C)cc1C(=O)N[S@@]1(=O)=NC(=O)c2ccc3c(c2)N(C[C@@H]2CC[C@H]2[C@@](O)(CC(=O)N2CCN(C)CC2)/C=C/C[C@H](C)C1)C[C@@]1(CCCc2cc(Cl)ccc21)CO3 [Example 100],0.038 nM,–,35.4
COc1nn(C)cc1C(=O)N[S@@]1(=O)=NC(=O)c2ccc3c(c2)N(C[C@@H]2CC[C@H]2[C@@H](OC)C[C@H]2C[C@H](CCN(C)C)O[C@@H]2[C@H](C)C1)C[C@@]1(CCCc2cc(Cl)ccc21)CO3 [Example 142],0.06 nM,–,106
C=CCO[C@@H]1/C=C/C[C@H](C)C[S@@](=O)(NC(=O)c2cn(C)nc2OC)=NC(=O)c2ccc3c(c2)N(C[C@@H]2CC[C@H]21)C[C@@]1(CCCc2cc(Cl)ccc21)CO3 [Example 55],0.332 nM,–,426
COc1nn(C)cc1C(=O)N[S@@]1(=O)=NC(=O)c2ccc3c(c2)N(C[C@@H]2CC[C@H]2[C@@](O)(CC(=O)N2CC(N4CCOCC4)C2)/C=C/C[C@H](C)C1)C[C@@]1(CCCc2cc(Cl)ccc21)CO3 [Example 106],0.038 nM,–,133
COc1nn(C)cc1C(=O)N[S@@]1(=O)=NC(=O)c2ccc3c(c2)N(C[C@@H]2CC[C@H]2/C=C/[C@@H](O)[C@H](NC(C)=O)[C@H](C)C1)C[C@@]1(CCCc2cc(Cl)ccc21)CO3 [Example 119],0.035 nM,–,244
CO[C@H]1/C=C/C[C@H](C)C[S@@](=O)(NC(=O)c2cn(C)nc2C#CC(C)(C)O)=NC(=O)c2ccc3c(c2)N(C[C@@H]2CC[C@H]21)C[C@@]1(CCCc2cc(Cl)ccc21)CO3 [Example 209],0.04 nM,127,–
COc1nn(C)cc1C(=O)N[S@@]1(=O)=NC(=O)c2ccc3c(c2)N(C[C@@H]2CC[C@H]2[C@@H](O)C#CC[C@H](C)C1)C[C@@]1(CCCc2cc(Cl)ccc21)CO3 [Example 36],0.267 nM,–,1070
COc1nn(C)cc1C(=O)N[S@@]1(=O)=NC(=O)c2ccc3c(c2)N(C[C@@H]2CC[C@H]2[C@@H](OC)C[C@H]2CC(=O)O[C@@H]2[C@H](C)C1)C[C@@]1(CCCc2cc(Cl)ccc21)CO3 [Example 140],0.067 nM,138,–
CO[C@H]1/C=C/[C@H](O)[C@H](C)C[S@@](=O)(Nc2ncnc3nn(C)cc23)=NC(=O)c2ccc3c(c2)N(C[C@@H]2CC[C@H]21)C[C@@]1(CCCc2cc(Cl)ccc21)CO3 [Example 66],0.039 nM,8.6,–
COc1nn(C)cc1C(=O)N[S@@]1(=O)=NC(=O)c2ccc3c(c2)N(C[C@@H]2CC[C@H]2[C@](O)(C#CCN(C)C)/C=C/C[C@H](C)C1)C[C@@]1(CCCc2cc(Cl)ccc21)CO3 [Example 109],0.028 nM,–,35.3
COc1ncc2c(N[S@@]3(=O)=NC(=O)c4ccc5c(c4)N(C[C@@H]4CC[C@H]4[C@@H](OC)/C=C/C[C@H](C)C3)C[C@@]3(CCCc4cc(Cl)ccc43)CO5)ncnc2n1 [Example 22],0.121 nM,169,–
CNc1nc(N[S@@]2(=O)=NC(=O)c3ccc4c(c3)N(C[C@@H]3CC[C@H]3[C@@H](OC)/C=C/C[C@H](C)C2)C[C@@]2(CCCc3cc(Cl)ccc32)CO4)c2cn(C)nc2n1 [Example 18],0.042 nM,19.6,–
COc1nn(C)cc1C(=O)N[S@@]1(=O)=NC(=O)c2ccc3c(c2)N(C[C@@H]2CC[C@H]2C/C=C/C[C@H](C)C1)C[C@@]1(CCCc2cc(Cl)ccc21)CO3 (mixture of isomers) [Example 130],0.46 nM,–,2560
